Source: the supplement of paper PMC10307832

Columns and labels:
Experiment in all cases: relative viability (nuclei count vs DMSO), 5 days (fraction); higher = more cells survive
Serdemetan + Pictilisib = compound: c1ccc2c(CCNc3ccc(Nc4ccncc4)cc3)c[nH]c2c1 [Serdemetan] + CS(=O)(=O)N1CCN(Cc2cc3nc(-c4cccc5[nH]ncc45)nc(N4CCOCC4)c3s2)CC1 [Pictilisib] (partner 1 µM)
How it was run: (§1)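 Relative viability was taken as the ratio of nuclei in treated wells to nuclei in vehicle wells. Lung cancer cell lines in 1536-well plates received compounds by pin tool one day after seeding, either one drug alone or a fixed anchor-drug dose plus five library-drug doses (not always all listed) in √10 steps. Nuclei were counted on 4× images after 5 days of treatment, and values are medians of duplicate plates.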

Selisistat + Crizotinib = compound: C1CC(C2=C(C1)C3=C(N2)C=CC(=C3)Cl)C(=O)N [Selisistat] + C[C@@H](Oc1cc(-c2cnn(C3CCNCC3)c2)cnc1N)c1c(Cl)ccc(F)c1Cl [Crizotinib] (partner 1 µM)
How it was run: as §1

Serdemetan + Trametinib = compound: c1ccc2c(CCNc3ccc(Nc4ccncc4)cc3)c[nH]c2c1 [Serdemetan] + CC(=O)Nc1cccc(-n2c(=O)n(C3CC3)c(=O)c3c(Nc4ccc(I)cc4F)n(C)c(=O)c(C)c32)c1 [Trametinib] (partner 0.02 µM)
How it was run: as §1

Serdemetan + Vorinostat = compound: c1ccc2c(CCNc3ccc(Nc4ccncc4)cc3)c[nH]c2c1 [Serdemetan] + O=C(CCCCCCC(=O)Nc1ccccc1)NO [Vorinostat] (partner 1 µM)
How it was run: as §1

## UMC-11
Serdemetan + Pictilisib; first compound 0.04 µM
  relative viability: 0.813
Serdemetan + Pictilisib; first compound 0.1265 µM
  relative viability: 0.866
Serdemetan + Pictilisib; first compound 0.4 µM
  relative viability: 0.824
Serdemetan + Pictilisib; first compound 1.265 µM
  relative viability: 0.47
Serdemetan + Pictilisib; first compound 4 µM
  relative viability: 0.737
Selisistat + Crizotinib; first compound 0.4 µM
  relative viability: 0.812
Selisistat + Crizotinib; first compound 1.265 µM
  relative viability: 0.653
Selisistat + Crizotinib; first compound 4 µM
  relative viability: 0.683
Selisistat + Crizotinib; first compound 12.65 µM
  relative viability: 0.69
Selisistat + Crizotinib; first compound 40 µM
  relative viability: 0.577
Serdemetan + Trametinib; first compound 0.04 µM
  relative viability: 0.703
Serdemetan + Trametinib; first compound 0.1265 µM
  relative viability: 0.672
Serdemetan + Trametinib; first compound 0.4 µM
  relative viability: 0.619
Serdemetan + Trametinib; first compound 1.265 µM
  relative viability: 0.388
Serdemetan + Trametinib; first compound 4 µM
  relative viability: 0.656
Serdemetan + Vorinostat; first compound 0.04 µM
  relative viability: 0.412
Serdemetan + Vorinostat; first compound 0.1265 µM
  relative viability: 0.445
Serdemetan + Vorinostat; first compound 0.4 µM
  relative viability: 0.37
Serdemetan + Vorinostat; first compound 1.265 µM
  relative viability: 0.268
Serdemetan + Vorinostat; first compound 4 µM
  relative viability: 0.335
